Patent US7790698B2, “Use of adenosine receptor agonists in therapy” (Cambridge Biotechnology Ltd, priority 2003, dated 2010)
Converted amounts (≈) assume the structure as drawn.

Tests used:
adenosine A2A receptor = conditions: cited from earlier work
[1] = test system: blood pressure and heart rate; assay: radiotelemetry of blood pressure and heart rate (Example 2, FIG. 2); format: in vivo, rat; conditions: 0.6 mg/kg p.o., rats
Procedure: FIG. 2: An implantable radiotelemetry device was placed in the abdominal cavity of 6 rats per group. The pressure catheter of the device was inserted in the abdominal aorta and two electrodes tunnelised under the skin in a lead II position (left side of abdominal cavity/right shoulder). Individual rats were placed in their own cage on a radioreceptor (DSI) for data acquisition. The effect of 0.6 mg/kg 2-methoxyadenosine or vehicle (p.o.) on blood pressure was then assessed. A: blood pressure; B: heart rate.

[2] = test system: carageenan-induced oedema in a rat paw; conditions: rats, 20 mg/kg po; cited from earlier work
[3] = test system: carrageenan (CGN) induced inflammation; assay: carrageenan induced inflammation, paw volume by plethysomometry (Example 1, FIG. 1); format: in vivo
Procedure: Carrageenan (2%, 10 microlitres) was administered into the right hind paw, and the paw volume assessed by plethysomometry. 2-methoxyadenosine was administered at the same time as carrageenan. 2-methoxyadenosine was as effective as indomethacin (Indo, 3 mg/kg p.o.).

[4] = test system: mean blood pressure and heart rate; conditions: rats, 20 mg/kg po; cited from earlier work
[5] = plasma concentration over time after administration (Example 3, FIG. 3); format: in vivo, rat
Procedure: The EC50 value of 2-methoxyadenosine at the adenosine A2A receptor is 900 ng/ml (3 μM). […] It can be seen that the plasma concentration remains above 2% of the EC50 value for more than 3 hours. Anti-inflammatory effects have been observed (without blood pressure changes) when the peak and maintained plasma concentrations are as low […] (i.e. 2% of the EC50 value determined in vitro).

COc1nc(N)c2ncn([C@@H]3O[C@H](CO)[C@@H](O)[C@H]3O)c2n1 [2-methoxyadenosine]
EC50 (adenosine A2A receptor; Daly et al. 1993): 3 µM
EC50 value at the adenosine A2A receptor (adenosine A2A receptor; determined in vitro): 0.9 µg/mL (≈ 3.03 µM)
effect on blood pressure [1]: no significant effect
effect on heart rate [1]: no significant effect
inhibition of carageenan-induced inflammation [2]: 25%
effect on blood pressure ([3]; 62.4 and 624 μg/kg i.p.): without affecting blood pressure
inhibition of carrageenan (CGN) induced inflammation (paw volume) ([3]; 62.4 and 624 μg/kg i.p., given at the same time as carrageenan, versus indomethacin 3 mg/kg po): comparable efficacy to indomethacin
plasma concentration at which profound anti-inflammatory activity is seen ([3]; plasma concentration): ≤ 0.2 µM
reduction in heart rate [4]: 25%
reduction in mean blood pressure [4]: 41%
time the plasma concentration remains above 2% of the EC50 value ([5]; 0.6 mg/kg to a rat): more than 3 hours
peak and maintained plasma concentration at which anti-inflammatory effects were observed without blood pressure changes ([5]; as low as, stated as 2% of the EC50 value): 8 ng/mL
effect on blood pressure when the peak plasma concentration reaches the EC50 value ([5]; peak plasma concentration 900 ng/ml, lasts for many hours): profound reductions in blood pressure
